These results are taken from patent publication US20060004010A1, “Ccr4 antagonist and medical use thereof” (priority 2002, published 2006).

One assay concerns TNFα. The assay can be described thus: Mouse TNFα production model by LPS stimulation. Format: in vivo. The settings on record: mouse C57BL/6, oral, dose of 100 mg/kg, LPS 60 mg/kg i.p. The method, then: 5-1: Mouse TNFα Production Model by LPS Stimulation
The present compound suspended in a medium, was orally applied to a mouse (male, C57BL/6), and after 0.5 hour, lipipolysaccharide (LPS, 055:B5, Sigma) was peritoneally administered to the mouse at a dose of 60 mg/kg. To the control groups was orally applied only the medium. Sixty minutes after LPS treatment, heparin-added blood collection was conducted from the abdominal vena cava under ether anesthesia, and centrifuged (12,000 r.p.m.) at 4° C. for 3 minutes, to give the plasma. The thus obtained plasma sample was stored at −80° C. before use. TNFα in the plasma was quantified using an ELISA kit (R&D systems).

The target of the next assay is T1, human CCR4 (Homo sapiens, UniProt P51679).
T1 construct: expressed in transfected cells; host or cells: CHO-dhfr(-)
T1 sequence (P51679 1-360): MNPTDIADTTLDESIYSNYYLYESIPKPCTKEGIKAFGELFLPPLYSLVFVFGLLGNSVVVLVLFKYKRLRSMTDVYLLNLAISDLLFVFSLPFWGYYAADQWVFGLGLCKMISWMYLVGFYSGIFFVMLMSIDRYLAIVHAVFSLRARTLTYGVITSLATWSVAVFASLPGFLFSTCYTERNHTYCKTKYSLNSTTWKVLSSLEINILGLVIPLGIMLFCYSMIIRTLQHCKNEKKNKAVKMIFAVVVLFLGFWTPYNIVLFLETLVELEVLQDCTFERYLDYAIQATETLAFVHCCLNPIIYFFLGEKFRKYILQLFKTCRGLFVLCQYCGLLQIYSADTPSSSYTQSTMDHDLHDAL
The assay can be described thus: Inhibition of MDC-induced transient Ca ion increase in CCR4/CHO cells. Format: cell-based. Conditions: human CCR4 stably overexpressing CHO cell; recombinant human MDC 10 nM; read-out: IC50 value, inhibition of Ca2+ transient increase by MDC. The method, then:
1-1: Isolation of Human CCR4 Gene
Human bone marrow cell cDNA was prepared using Marathon cDNA amplification kit (manufactured by Clontech). PCR primers hCCR4XbaI-F1 (SEQ ID NO:1) and hCCR4XbaI-R1 (SEQ ID NO:2) were designed based on the sequence of GenBankX85740.
Using the human bone marrow cell cDNA as the template and using Ex Taq (manufactured by Takara), a PCR reaction (2 minutes at 95° C.→[30 seconds at 95° C., 45 seconds at 60° C., 1 minute at 72° C.]×35 times) was carried out. The thus amplified PCR product was subjected to 1% agarose gel electrophoresis, purified using QIAquick Gel Extraction Kit (manufactured by QUIAGEN) and then digested with a restriction enzyme Xbal. […]
The thus established human CCR4 stably overexpressing CHO cell (CCR4/CHO cell) was suspended in Ham's F-12 medium and FBS (10%) and dispensed into a 96-well plate at 3.0×10^4 cells/well. […] Transient increase in the intracellular Ca^2+ concentration induced by the human MDC was measured using a Ca^2+ detector for 96-well (manufactured by Hamamatsu Photonics), and inhibition ratio (%) of the test compound was calculated by the following equation: Inhibition ratio=[(Ec−Ea)/Ec]×100 • Ec: measured value of Ca^2+ transient increase by MDC; and • Ea: measured value of Ca^2+ transient increase by MDC when a test compound was added […]

For assay [1], the system named is auricle swelling. The assay can be described thus: Mouse dermatitis model to which hapten is continuously applied (TNCB). Format: in vivo. The settings on record: mouse Balb/c, repeated TNCB, applied to ear at a concentration of 5%. The procedure: 4-2: Mouse Dermatitis Model to which Hapten is Applied
To the auricle (both sides of the right ear) of the mouse (male, Balb/c), 1% (w/v) TNCB solution (acetone:olive oil=4:1) (20 μL) was applied to conduct first sensitization. Seven days after sensitization, 1% (w/v) TNCB (acetone:olive oil=4:1) (20 μL) was applied to the mouse auricle, to conduct induction (Day 0). Furthermore, on Days 2, 4, 6, 8, 10, 12, 14 and 16, the same procedure as on Day 0 was repeated. The compound of the present invention was dissolved in a medium, applied to both sides of the right ear (20 μL) 2 hours before applying TNCB. To the control groups, was applied only the medium. Right after the administration of the compound and 24 hours after TNCB application, the thickness of the mouse auricle was measured with Dialthickness gauge (manufactured by Ozaki Seisakusho), which was used as indicator for efficacy in mouse dermatitis model to which hapten was continuously applied.

Assay [2] concerns leukocyte infiltration into the lung. The assay can be described thus: Mouse OVA-induced asthma model. The assay is classed as in vivo. Conditions: mouse C57BL/6, oral, dose of 30 mg/kg. The method, then:
3-1: Mouse OVA-Induced Asthma Model Ovalbumin (OVA, 0.2 mg/mL) and Alum (8 mg/mL) prepared in physiological saline were intraperitoneally administered (500 μL) to the mouse (male, C57BL/6) on Day 1 (test starting day) and Day 8 (1 week thereafter), to sensitize the mouse. On Days 15 to 21, the mouse was taken to an inhalation chamber (W: 240 mm×L: 240 mm×H: 120 mm), and a 2% OVA solution was sprayed with an ultrasonic wave type nebulizer (NE-U12, manufactured by Omron) for 20 minutes, to thus conduct induction. The compound of the present invention suspended in a medium, was administered orally at 30 minutes before OVA sensitization on Day 8 and at 30 minutes before OVA induction on Days 15 to 21. To the control group was administered only the medium. Three hours after OVA inhalation on Day 21, the mouse was exsanguinated, the catheter tube was inserted into the trachea, and the lung was washed with heparin-containing physiological saline (10 U/ml), to give a bronchoalveolar lavage fluid (BALF). Leukocyte number in BALF was counted using hemocyte counter (SF-3000, manufactured by Sysmex).

The subject of assay [3] is auricle swelling. The assay can be described thus: Mouse DTH model (TNCB). The settings on record: mouse Balb/c, applied to ear at a concentration of 5%, 24 hours after TNCB. Format: in vivo. The procedure:
The mouse (male, Balb/c) was shaved on the abdomen with hair clippers, and to the abdomen was applied ethanol solution (100 μL) of 7% (w/v) 2,4,6-trinitrochlrobenzene (TNCB), to sensitize the mouse. Seven days after sensitization, a 1% (w/v) TNCB solution in olive oil (20 μL) was applied to the auricle of the mouse (both sides of the right ear), to conduct induction. The present compound dissolved in a medium, was applied to both sides of the right ear (20 μL) 2 hours before applying TNCB. To the control groups, was applied only the medium. Right after the administration of the compound and 24 hours after TNCB application, the thickness of the mouse auricle was measured with Dialthickness gauge (manufactured by Ozaki Seisakusho), which was used as indicator for efficacy in mouse DTH model.

For another assay, the system named is CCRF-CEM cell. The assay can be described thus: Inhibition of MDC-induced T cell strain (CCRF-CEM cell) migration. The settings on record: 4 hours. Format: cell-based. The method, then:
Biological Example 2: Activity on cell migration stimulated by MDC 2-1: Inhibition tests on MDC-induced T cell strain (CCRF-CEM cell) migration A medium (0.3 mL) containing or free of MDC (20 nM, manufactured by PeproTech) was added to the lower chamber of 24-transwell plate, and further a medium (0.3 mL) containing a test compound solution of 2-fold concentration (containing 0.02% dimethylsulfoxide (DMSO)) or a medium (0.3 mL) containing DMSO only was added thereto. To the upper chamber, CCRF-CEM cell suspension prepared in 1×10^6 cells/50 μl and the test compound solution of 2-fold concentration (0.05 m]L) were added. The test was initiated by superimpose the upper chamber on the lower chamber. The chambers were incubated in a carbon gas incubator (5% CO2, 95% humidity) kept at 37° C. for 4 hours, and the cells remaining in the upper chamber were sucked up and removed. Then, 0.1 ml of a buffer (phosphate-buffered saline (PBS) containing ethylenediamine tetra-acetate sodium (EDTA) (20 μM) was added thereto, and subjected- to reaction at 4° C. for 30 minutes. The transwell plate was centrifuged (1000 r.p.m.) for 5 minutes, and the incubation liquid (600 μL) in the lower chamber was collected, and the cell number was counted using Flow Cytometer (manufactured by Becton-Dickinson). […]

As to `Cc1ccc(S(=O)(=O)Nc2ncc(Br)nc2OCc2cccnc2)cc1` [Example 1(1), 6-bromo-2-((pyridin-3-yl)methyloxy)-3-(4-methylphenylsulfonylamino)pyrazine], the “TNFα production by LPS stimulation (plasma TNFα)” value in the assay on TNFα was “suppressed TNFα production by LPS stimulation”. Further, the IC50 – broadly, the concentration that inhibits the measured activity by half – on human CCR4 is 130 nM.
In the case of `COc1ccc(COc2nc(Br)cnc2NS(=O)(=O)c2ccc(C)cc2)cc1OC` [Example 1(2), 6-bromo-2-((3,4-dimethoxyphenyl)methyloxy)-3-(4-methylphenylsulfonylamino)pyrazine], at human CCR4, the IC50 stood at 16 nM.
Regarding `COc1ccc(COc2nc(Br)cnc2NS(=O)(=O)c2ccc(C)cc2)cc1OCCN(C)C` [Example 1(3), 6-bromo-2-((3-(2-dimethylaminoethyloxy)-4-methoxyphenyl)methyloxy)-3-(4-methylphenylsulfonylamino)pyrazine], in the assay on auricle swelling [1], the auricle swelling result is “suppressed the auricle swelling”. In assay [2], the “leukocyte infiltration into the lung (leukocyte number in BALF)” value is “suppressed leukocyte infiltration into the lung”.
As for `COc1ccc(COc2nc(C)cnc2NS(=O)(=O)c2ccc(C)cc2)cc1OCCN(C)C` [Example 6(1), 6-methyl-2-((3-(2-dimethylaminoethyloxy)-4-methoxyphenyl)methyloky)-3-(4-methylphenylsulfonylamino)pyrazine], the auricle swelling entry in the assay on auricle swelling [3] was “suppressed the auricle swelling”. The midpoint of inhibition with CCRF-CEM cell, the IC50, lay at 10 nM.
